From patent publication US9260504B2, “N- and C-terminal substituted antagonistic analogs of GH-RH” (University of Miami, priority 2008, dated 2016)

Experiments:
Format in all cases: in vivo
[1] = tested on: PC-3 human hormone-independent prostate cancer; assay: PC-3 human prostate cancer xenografts in nude mice, Experiment 4; details: for Tumor growth after 28 days (%) / Tumor growth after 46 days (%) / Inhibition (%): 2 μg/day s.c.; for Inhibitory effect on PC-3 tumors compared with reference peptide JMR-132: 2 μg/day vs JMR-132 10 μg/day, after 46 days of treatment
Description: Male nude mice were implanted s.c. with 3 mm^3 pieces of PC-3 human hormone-independent prostate cancer tissue on both flanks. When tumors reached a volume of approximately 50 mm^3, the mice were divided into 12 experimental groups with 8 to 10 animals in each group and received single daily injections for 28 days as follows: 1. Control (vehicle solution); 2. JMR-132 (10 μg/day s.c.); 3. Peptide 11113 (2 μg/day s.c.); 4. Peptide 11119 (2 μg/day s.c.); 5. Peptide 11209 (2 μg/day s.c.); 6. Peptide 11313 (2 μg/day s.c.); 7. Peptide 11408 (2 μg/day s.c.); 8. Peptide 11435 (2 μg/day s.c.); 9. Peptide 11457 (2 μg/day s.c.); 10. Peptide 11459 (2 μg/day s.c.); 11. Peptide 11469 (2 μg/day s.c.); 12. Peptide 11491 (2 μg/day s.c.).
(§1) Tumor volumes were measured once a week. The experiment was ended on day 28 by sacrificing the mice under Isoflurane anesthesia. Resulting tumors were cleaned, weighed, and snap-frozen until further analyses. Statistical analyses of the measurement results were done by two-tailed t-test, p<0.05 being considered significant.
All experimental details of Experiment 4 are the same as for Experiment 3, with the following difference. When tumors reached a volume of approximately 50 mm^3, the mice were divided into 11 experimental groups with 8 to 10 animals in each group and received single daily injections for 46 days as follows: 1. Control (vehicle solution); 2. JMR-132 (10 μg/day s.c.); 3. Peptide 11123 (2 μg/day s.c.); 4. Peptide 11125 (2 μg/day s.c.); 5. Peptide 11213 (2 μg/day s.c.); 6. Peptide 11433 (2 μg/day s.c.); 7. Peptide 11473 (2 μg/day s.c.); 8. Peptide 11485 (2 μg/day s.c.); 9. Peptide 11497 (2 μg/day s.c.); 10. Peptide 11499 (2 μg/day s.c.); 11. Peptide 11521 (2 μg/day s.c.). Tumor volumes were measured once a week. The experiment was ended on day 46 by sacrificing the mice under Isoflurane anesthesia. Resulting tumors were cleaned, weighed, and snap-frozen until further analyses. Statistical analyses of the measurement results were done by two-tailed t-test, p<0.05 being considered significant.

[2] = tested on: H-460 human non-small cell lung cancer; assay: H-460 human non-SCLC xenografts in nude mice, Experiment 3; details: 28 days; for Tumor growth inhibition after 4 weeks (%): 5 μg/day s.c.; for Inhibition of H-460 lung tumor growth compared with reference peptide JMR-132: 5 μg/day vs JMR-132 10 μg/day
Description: Male nude mice were implanted s.c. with 3 mm^3 pieces of H-460 human non-SCLC tumor tissue on both flanks. When tumors had grown to a mean volume of approximately 90 mm^3, the mice were randomly assigned into 8 experimental groups with 8 to 10 animals in each group and received single daily injections for 28 days as follows: 1. Control (vehicle solution); 2. JMR-132 (10 μg/day s.c.); 3. Peptide 11123 (5 μg/day s.c.); 4. Peptide 11125 (5 μg/day s.c.); 5. Peptide 11307 (5 μg/day s.c.); 6. Peptide 11317 (5 μg/day s.c.); 7. Peptide 11473 (5 μg/day s.c.); 8. Peptide 11485 (5 μg/day s.c.). Tumor volumes were measured once a week. The experiment was ended on day 28 by sacrificing the mice under Isoflurane anesthesia. Resulting tumors were cleaned, weighed, and snap-frozen until further analyses. Statistical analyses of the measurement results were done by two-tailed t-test, p<0.05 being considered significant.

[3] = tested on: PC-3 human hormone-independent prostate cancer; assay: PC3 androgen-independent prostate cancer xenografts in nude mice (Example XIV); details: 2 μg/day
Description: Male nude mice were implanted s.c. with 3 mm^3 pieces of PC-3 human hormone-independent prostate cancer tissue on both flanks. When tumors reached a volume of approximately 50 mm^3, the mice were divided into 8 experimental groups with 8 to 10 animals in each group and received single daily injections for 28 days as follows: 1. Control (vehicle solution); 2. P-11513 2 μg/day; 3. P-11602 2 μg/day; 4. P-11602 1 μg/day; 5. P-11604 2 μg/day; 6. P-11606 2 μg/day; 7. P-11610 2 μg/day; 8. P-11610 1 μg/day.
as §1

[4] = tested on: H460 human non-small cell lung cancer cell line; assay: H460 human non-small cell lung cancer xenografts in nude mice (Example XV); details: 5 μg/day s.c.
Source text: The aim of this study was to find out the tumor inhibitor effect of the latest GHRH antagonists (Peptide 11423, Peptide 11602, Peptide 11604, Peptide 11606) on H460 human non-small cell lung cancer cell line. Female nude mice were xenografted subcutaneously with approximately 3 mm^3 pieces of H460 human non-small cell lung cancer malignant tumor tissue. When tumors reached the mean volume of approximately 90 mm^3, the animals was randomly assigned into different groups. Tumor volumes and body weight were measured once a week. At the end of the experiment mice were anesthetized and sacrificed. Tumors were carefully excised, weighed and were stored at −80° C. until further investigation. Organs and tumor samples were preserved in 10% formaldehyde.

[5] = tested on: HT human diffuse mixed B cell lymphoma cell line; assay: HT human diffuse mixed B cell lymphoma xenografts in nude mice; details: 5 μg/day s.c.
Description: The aim of this study was to find out the tumor inhibitor effect of the latest GHRH antagonists (Peptide 11602, Peptide 11604, Peptide 11606, and Peptide 11610) at the dose of 5 μg/day on HT human diffuse mixed B cell lymphoma cell line. Female nude mice were xenografted subcutaneously with approximately 3 mm^3 pieces of HT malignant tumor tissue. When tumors reached the mean volume of approximately 120 mm^3, the animals were randomly assigned into different groups. Tumor volumes and body weight were measured once a week. At the end of the experiment mice were anesthetized and sacrificed. Tumors were carefully excised, weighed and were stored at −80° C. until further investigation. Organs and tumor samples were preserved in 10% formaldehyde.

[6] = tested on: Human ovarian cancer SKOV3 cells; assay: SKOV3 ovarian cancer xenografts in nude mice; details: 5 μg/day s.c.
Source text: Human ovarian cancer SKOV3 cells growing exponentially were implanted info five female nude mice by subcutaneous (s.c.) injection of 10^7 cells in both flanks. Tumors That resulted after approximately 4 weeks in donor animals were then aseptically dissected and mechanically minced. Three mm^3 pieces of tumor tissue were transplanted subcutaneously into experimental animals with a trocar needle. When tumors reached an appropriate size (approximately 50 mm^3), mice were randomly divided into […]. The first was the control group, the second group was treated with daily s.c. injections of 5 μg P-11313, the third group was treated with daily s.c. injections of 5 μg P-11604, the fourth group was treated with daily s.c. injections of 5 μg P-11610. Tumor volume (length×width×height×0.5236) was measured every week and mean tumor volumes of each group were compared by Student's t-test. The study lasted 49 days. One week after end of treatment, mice were killed under anesthesia, tumors were snap frozen and stored at −70° C.

[7] = tested on: NCI-N87 human gastric cancer; assay: NCI-N87 human gastric cancer xenografts in nude mice; details: 10 μg/day s.c.
Description: NCI-N87 cancers were transplanted s.c. into both flank areas of 30 female nude mice. The mice were randomly assigned into 4 experimental groups with 6 to 9 animals in each group and received single daily injections for 77 days as follows: 1. Control (vehicle solution); 2. JMR-132 (10 μg/day s.c.); 3. Peptide 1109 (10 μg/day s.c.); 4. Peptide 11479 (10 μg/day s.c.). Tumor volumes were measured once a week. The experiment was ended on day 77 by sacrificing the mice under Isoflurane anesthesia. Resulting tumors were cleaned, weighed, and snap-frozen until further analyses. Statistical analyses of the measurement results were done by two-tailed t-test, p<0.05 being considered significant. Data are presented as the means±S.E.

Substance: [(CH3—(CH2)10CO-Ada)^0-Tyr^1, D-Arg^2, Cpa^6, Ala^8, Har^9, Tyr(Me)^10, His^11, Orn^12, Abu^15, His^20, Orn^21, Nle^27, D-Arg^28, Har^29-Ada^30]hGH-RH(1-29)NH2 [Peptide 11485]
- Tumor growth after 28 days (%) [1]: 794%
- Tumor growth after 46 days (%) [1]: 1257%
- Inhibitory effect on PC-3 tumors compared with reference peptide JMR-132 [1]: had a more potent inhibitory effect than reference peptide JMR-132
- Inhibition (%) ([1]; after 28 days): 41.96%
- Inhibition (%) ([1]; after 46 days): 62.24%
- Tumor growth inhibition after 4 weeks (%) [2]: 9.04%

Substance: [(PhAc-Ada)^0-Tyr^1, D-Arg^2, (Phe(F)5)^6, Ala^8, Har^9, Tyr(Me)^10, His^11, Orn^12, Abu^15, His^20, Orn^21, Nle^27, D-Arg^28, Har^29, Agm^30]hGH-RH(1-29) [Peptide 11604]
- TUMOR GROWTH (%) ([3]; day 0 (baseline)): 100%
- TUMOR GROWTH (%) ([3]; day 7): 159.84%
- Tumor inhibition (%) ([3]; day 7): 51.75%
- TUMOR GROWTH (%) ([3]; day 14): 199.57%
- Tumor inhibition (%) ([3]; day 14): 66.23%
- TUMOR GROWTH (%) ([3]; day 21): 316.88%
- Tumor inhibition (%) ([3]; day 21): 73.37%
- TUMOR GROWTH (%) ([3]; day 28): 383.97%
- Tumor inhibition (%) ([3]; day 28): 79.33%
- TUMOR GROWTH (%) ([4]; day 1 (baseline)): 100.00%
- TUMOR GROWTH (%) ([4]; day 7): 341.87%
- Tumor inhibition (%) ([4]; day 7): 35.48%
- TUMOR GROWTH (%) ([4]; day 14): 609.38%
- Tumor inhibition (%) ([4]; day 14): 55.93%
- TUMOR GROWTH (%) ([4]; day 21): 1006.40%
- Tumor inhibition (%) ([4]; day 21): 59.24%
- TUMOR GROWTH (%) ([4]; day 28): 1595.34%
- Tumor inhibition (%) ([4]; day 28): 61.08%
- TUMOR GROWTH (%) ([5]; day 1 (baseline)): 100%
- Tumor inhibition (%) ([5]; day 1 (baseline)): 0%
- Tumor volume (mm^3) ([5]; day 1 (baseline)): 125.04 mm^3
- TUMOR GROWTH (%) ([5]; day 7): 129.89%
- Tumor inhibition (%) ([5]; day 7): 57.53%
- Tumor volume (mm^3) ([5]; day 7): 165.21 mm^3
- TUMOR GROWTH (%) ([5]; day 14): 175.7%
- Tumor inhibition (%) ([5]; day 14): 63.61%
- Tumor volume (mm^3) ([5]; day 14): 231.44 mm^3
- TUMOR GROWTH (%) ([5]; day 21): 271.36%
- Tumor inhibition (%) ([5]; day 21): 65.27%
- Tumor volume (mm^3) ([5]; day 21): 563.86 mm^3
- TUMOR GROWTH (%) ([5]; day 28): 338.41%
- Tumor inhibition (%) ([5]; day 28): 62.25%
- Tumor volume (mm^3) ([5]; day 28): 818.2 mm^3
- TU growth (%) ([6]; day 0 (baseline)): 100%
- TU growth (%) ([6]; day 7): 144.55%
- TU inhibition (%) ([6]; day 7): 32.57%
- TU growth (%) ([6]; day 14): 174.5%
- TU inhibition (%) ([6]; day 14): 37.73%
- TU growth (%) ([6]; day 21): 179.5%
- TU inhibition (%) ([6]; day 21): 66.97%
- TU growth (%) ([6]; day 28): 167.5%
- TU inhibition (%) ([6]; day 28): 80.12%
- TU growth (%) ([6]; day 35): 182.88%
- TU inhibition (%) ([6]; day 35): 79.52%
- TU growth (%) ([6]; day 42): 397.95%
- TU inhibition (%) ([6]; day 42): 67.80%
- TU growth (%) ([6]; day 49): 309.96%
- TU inhibition (%) ([6]; day 49): 75.63%

Substance: [(Ac-Amc)-Tyr^1, D-Arg^2, Cpa^6, Ala^8, Har^9, Tyr(Me)^10, His^11, Orn^12, Abu^15, His^20, Nle^27, D-Arg^28, Har^29-Amc^30]hGH-RH(1-29)NH2 [Peptide 11307]
- Tumor growth inhibition after 4 weeks (%) [2]: 30.98%
- Inhibition of H-460 lung tumor growth compared with reference peptide JMR-132 [2]: more potently inhibited the growth of H-460 lung tumors than the reference peptide JMR-132

Substance: [(PhAc^0-Ada)-Tyr^1, D-Arg^2, Cpa^6, Ala^8, Har^9, Tyr(Me)^10, His^11, Orn^12, Abu^15, His^20, Orn^21, Nle^8, D-Arg^28, Har^29-Ada^30]hGH-RH(1-29)NH2 [Peptide 11473]
- Tumor growth after 28 days (%) [1]: 442%
- Tumor growth after 46 days (%) [1]: 1072%
- Inhibitory effect on PC-3 tumors compared with reference peptide JMR-132 [1]: had a more potent inhibitory effect than reference peptide JMR-132
- Inhibition (%) ([1]; after 28 days): 67.68%
- Inhibition (%) ([1]; after 46 days): 67.80%
- Tumor growth inhibition after 4 weeks (%) [2]: 54.64%
- Inhibition of H-460 lung tumor growth compared with reference peptide JMR-132 [2]: more potently inhibited the growth of H-460 lung tumors than the reference peptide JMR-132

Substance: [(Ac-Ada)^0-Tyr^1, D-Arg^2, (Phe(F)5)^6, Ala^8, Har^9, Tyr(Me)^10, His^11, Orn^12, Abu^15, His^20, Orn^21, Nle^27, D-Arg^28, Har^29]hGH-RH(1-29)NH2 [Peptide 11479]
- Number of regressing tumors ([7]; 77 days): 1
- Tumor growth after 77 days (%) ([7]; 77 days, means±S.E.): 235 ± 48 %
- Tumor weights ([7]; day 77, means±S.E.): 144 ± 41 mg
- Tumor doubling time ([7]; calculated without the regressing tumors): 156.7 ± 55.7 days

Substance: [(Ac-Ada)^0-Tyr^1, D-Arg^2, Cpa^6, Ala^8, Har^9, Tyr(Me)^10, His^11, Abu^15, His^20, Nle^27, D-Arg^28, Har^29-Ada^30]hGH-RH(1-29)NH2 [Peptide 11317]
- Tumor growth inhibition after 4 weeks (%) [2]: 41.00%
- Inhibition of H-460 lung tumor growth compared with reference peptide JMR-132 [2]: more potently inhibited the growth of H-460 lung tumors than the reference peptide JMR-132
